{"source": "patent US11986530B2", "about": "“Drug composition for parenteral administration” (THERABIOPHARMA INC., priority 2016, dated 2024)", "key": {"[1]": {"tested_on": "colorectal cancer cells derived from adult human colon HCT116", "assay": "Anti-tumor effect by intravenous administration of curcumin conjugates (tumor size, HCT116 transplanted mice)", "type": "in vivo, BALB/cAnNcr j-nu/nu (homo) mice", "conditions": "HCT116 mouse", "source_text": "1×10^7 or 4×10^6 colorectal cancer cells derived from adult human […] colon HCT116 (ATCC No. CCL-247) were transplanted subcutaneously into the flank of each of the test animals by using a 27 G injection needle.\nIn this regard, in the control group, mice to which water for injection excluding curcumin monoglucuronide had been administered intravenously were used.\nFor the tumor size, after each lapse of 0, 4, 7, 11 and 14 days from the start of administration or after each lapse of 0, 4, 7, 11, 14, 18 and 21 days from the start of administration, the length, width and height of the tumor were measured by using a vernier caliper, and the tumor size was calculated by the following equation. Tumor size (mm^3)=length×width×height×0.5 (5) Concentration of Curcumin Conjugates and Free Curcumin in Tumor Tissue"}, "[2]": {"assay": "Serum biochemical test (liver and biliary diseases set, 21 items) in tumor-bearing mice", "type": "in vivo, BALB/cAnNcr j-nu/nu (homo) mice", "conditions": "30 mg/kg i.v., 14 days from start of administration"}, "in vivo": {"assay": "in vivo", "conditions": "mouse", "description": "Intravenous administration of a single dose of curcumin monoglucuronide was performed to each of the mice at each dose of 125, 250, 500 and 1000 mg/kg, and the toxicity thereof was evaluated. In this regard, the number of mice in each group was set to be n=5.\nAs the test animals, 6-week old Slc:ICR mice (male, with a body weight of 27 to 31 g, Japan SLC, Inc.), which had been purchased and acclimated to the environment for around 6 days, was used.\nObservation of the state of each of the mice was performed by recording the type, extent, expression time, recovery time, and death (death detection) time of all of the toxic signs observed macroscopically.\nObservation was performed at a time immediately after administration, at a time after each lapse of 30 minutes, 1, 2, 4 and 6 hours from the start of administration, and once a day from the day following the date of administration (up to after the lapse of 14 days from the start of administration).\nThe body weight was measured by using an electronic balance (UW4200S, Shimadzu Corporation) immediately before administration, and after each lapse of 1, 3, 7, 10 and 14 days from the administration.\nBlood biochemical test was performed by the following method. That is, mice were fasted for 4 hours or more after the end of the mouse observation period (after the lapse of 14 days from the start of administration), the fasted mice were subjected to laparotomy under anesthesia by intraperitoneal administration of pentobarbital sodium, and the blood was collected from the abdominal aorta (the amount of the blood was 0.6 mL or more). Next, the collected blood was anti-coagulated with heparin sodium, and then the anti-coagulated blood was centrifuged (4° C., 3000 rpm, for 10 minutes) to obtain the plasma, and transaminase (AST and ALT) contained in the plasma was measured.\nAfter the end of the observation period (after the lapse of 14 days from the start of administration), autopsy was performed as follows: blood was collected from each of the mice under anesthesia with pentobarbital sodium; and then the mice were sacrificed by exsanguination by cutting the abdominal aorta and the caudal vena; each of the sacrificed mice was dissected according to a pathological technique; and the cranium, the intrathoracic organs, the intraperitoneal organs, and the tissues thereof were observed macroscopically."}, "β-glucuronidase": {"tested_on": "β-glucuronidase", "conditions": "10 μL of 2.81 μg/mL substrate, pH 5.0, 37° C., 1 hour, n=3", "procedure": "In this regard, as a control, curcumin monoglucuronide was used for the examination.\nIn addition, as the curcumin diglucuronide, commercially available curcumin diglucuronide (manufactured by SynInnova Laboratories Inc.) was used.\nNext, into the resultant mixture, 0.5 mL of chloroform was added, and the mixture was stirred for 1 minute with a vortex mixer, and then the stirred mixture was treated for 15 minutes by using an ultrasonic generator, and the treated mixture was fractionated into a chloroform layer and a water layer by centrifugation (10,000×g, for 5 minutes, at room temperature). Further, this fractionation process was repeated twice. After that, the chloroform layer was collected, and dried and solidified by distilling off the solvent with a vacuum centrifugal concentrator, and to the dried and solidified matter, 100 μL of 50% (v/v) methanol was added, and then the resultant mixture was centrifuged (10,000×g, for 5 minutes, at room temperature) to collect a supernatant liquid, and the collected supernatant liquid was taken as an enzyme-treated sample.\nIn 2 μL of the enzyme-treated sample prepared in the above (2), free curcumin was measured by the method described in “b."}, "KBM-5": {"tested_on": "KBM-5", "conditions": "KBM-5, in vitro; cited from earlier work"}, "Jurkat cells": {"tested_on": "Jurkat cells", "conditions": "in vitro; cited from earlier work"}, "U266": {"tested_on": "U266", "conditions": "U266, in vitro; cited from earlier work"}, "A549": {"tested_on": "A549", "conditions": "A549, in vitro; cited from earlier work"}, "[3]": {"tested_on": "human hepatocellular carcinoma cell lines (HepG2 cells)", "conditions": "cited from earlier work"}, "[4]": {"tested_on": "human hepatocellular carcinoma cell lines (HepG2 cells)", "conditions": "compared to free curcumin; cited from earlier work"}}, "data": [{"smiles": "COc1cc(/C=C/C(O)=C/C(=O)/C=C/c2ccc(O[C@@H]3O[C@H](C(=O)O)[C@@H](O)[C@H](O)[C@H]3O)c(OC)c2)ccc1O", "note": "[curcumin monoglucuronide]", "values": [{"measurement": "tumor size", "setting": "[1]; 30 mg/kg i.v., 0 day from start of administration", "value": "142.9±45.5", "unit": "mm^3"}, {"measurement": "tumor size", "setting": "[1]; 30 mg/kg i.v., 4 days", "value": "275.1±88.1", "unit": "mm^3"}, {"measurement": "tumor size", "setting": "[1]; 30 mg/kg i.v., 11 days", "value": "489.4±147.8", "unit": "mm^3"}, {"measurement": "tumor size", "setting": "[1]; 30 mg/kg i.v., 14 days", "value": "581.2±197.4", "unit": "mm^3"}, {"measurement": "tumor size", "setting": "[1]; 90 mg/kg i.v., 0 day from start of administration", "value": "17.4±3.2", "unit": "mm^3"}, {"measurement": "tumor size", "setting": "[1]; 90 mg/kg i.v., 4 days", "value": "23.6±8.4", "unit": "mm^3"}, {"measurement": "tumor size", "setting": "[1]; 90 mg/kg i.v., 7 days", "value": "42.6±16.6", "unit": "mm^3"}, {"measurement": "tumor size", "setting": "[1]; 90 mg/kg i.v., 11 days", "value": "77.5±28.9", "unit": "mm^3"}, {"measurement": "tumor size", "setting": "[1]; 90 mg/kg i.v., 14 days", "value": "122.9±42.6", "unit": "mm^3"}, {"measurement": "tumor size", "setting": "[1]; 90 mg/kg i.v., 18 days", "value": "204.4±76.2", "unit": "mm^3"}, {"measurement": "tumor size", "setting": "[1]; 90 mg/kg i.v., 21 days", "value": "190.2±70.1", "unit": "mm^3"}, {"measurement": "serum biochemical test values (liver and biliary diseases set, 21 items)", "setting": "[2]", "value": "no abnormality was found in the test values"}, {"measurement": "prone position and reduction of locomotor activity, number of mice", "setting": "in vivo; male, Slc:ICR", "value": 5}, {"measurement": "reduction of locomotor activity, number of mice", "setting": "in vivo; male, Slc:ICR", "value": 5}, {"measurement": "LD50 at 14 days", "setting": "in vivo; male, Slc:ICR, iv", "value": "500 to 1000", "unit": "mg/kg"}, {"measurement": "autopsy findings", "setting": "in vivo", "value": "no abnormality was found"}, {"measurement": "state of mice by macroscopy", "setting": "in vivo", "value": "no abnormality was found"}, {"measurement": "concentration of the curcumin contained in the enzyme-treated sample", "setting": "β-glucuronidase", "value": "159.1 ± 6.1", "unit": "ng/mL"}, {"measurement": "cell growth inhibitory effect", "setting": "KBM-5", "value": "there is no such an effect"}, {"measurement": "cell growth inhibitory effect", "setting": "Jurkat cells", "value": "there is no such an effect"}, {"measurement": "cell growth inhibitory effect", "setting": "U266", "value": "there is no such an effect"}, {"measurement": "cell growth inhibitory effect", "setting": "A549", "value": "there is no such an effect"}, {"measurement": "cell growth inhibitory effect", "setting": "[3]", "value": "the effect was not found"}, {"measurement": "influence on the gene expression", "setting": "[4]", "value": "the action was extremely low"}]}]}
